How the values were obtained:
[1] = biological target: T1, yeast Gal4-DNA binding domain fused to the ligand binding domain of human RORγ (Homo sapiens, UniProt P51449); test: RORγ Reporter Assay (Gal4); type: cell-based; conditions: values given as lower bounds of ranges; for Gal4 activity range @ 0.1 μM (% inhibition): RORγ Reporter Assay (Gal4) at 0.1 μM; for Gal4 activity range @ 1 μM (% inhibition): RORγ Reporter Assay (Gal4) at 1 μM
T1 construct: host or cells: HEK293t
T1 sequence (P51449 269-508 limits assumed): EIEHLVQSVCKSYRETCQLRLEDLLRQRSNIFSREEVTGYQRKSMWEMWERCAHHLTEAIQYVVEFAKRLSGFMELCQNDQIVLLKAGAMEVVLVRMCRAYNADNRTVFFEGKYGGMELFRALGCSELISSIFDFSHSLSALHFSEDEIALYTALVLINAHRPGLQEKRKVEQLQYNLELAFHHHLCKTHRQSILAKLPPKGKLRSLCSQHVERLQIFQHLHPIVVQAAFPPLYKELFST
How it was run: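 Compound at final 1,000 or 100 nM (0.1% DMSO, triplicate) was added to the transfected HEK293t cells carrying a Gal4-UAS luciferase reporter for 24 h at 37 °C, 10% charcoal-stripped FBS. Activity reduction expressed as percent of vehicle-only luciferase signal.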

[2] = biological target: T2, human RORγt (Ligand Binding Domain) (Homo sapiens, UniProt P51449); test: Fluorescence Polarization (FP) Assay; conditions: Fluorescence Polarization (FP) Assay; values given as upper bounds of activity ranges; read-out: FP activity range
T2 construct: purchased Crelux (Planegg, Germany) batch no PC5032-1
T2 sequence (P51449 269-508 limits assumed): T1 sequence (P51449 269-508 limits assumed)
How it was run: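 Binding to the ligand pocket followed by fluorescence polarization with a TAMRA-tagged RORγt ligand probe of 910 g/mole. Negative control wells received DMSO only.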

Gal4 activity range @ 0.1 μM (% inhibition) [1] [% inhibition]	Gal4 activity range @ 1 μM (% inhibition) [1] [% inhibition]	IC50 [2] [µM]	Structure (SMILES)
>50	>80	< 0.5	CC(=O)N1CCC(CNc2ncnc(N3CCC[C@@H]3c3ccc(C(F)(F)F)cc3)c2F)CC1 [Example 191, 1-[4-[[[5-fluoro-6-[(2R)-2-[4-(trifluoromethyl)phenyl]pyrrolidin-1-yl]pyrimidin-4-yl]amino]methyl]-1-piperidyl]ethanone]
>50		< 0.5	O=C(O)Cc1ccc(CNc2ncnc(N3CCCC3c3ccc(OC(F)(F)F)cc3)c2F)cc1 (stereo not drawn) [Example 192, 2-[4-[[[5-fluoro-6-[2-[4-(trifluoromethoxy)phenyl]pyrrolidin-1-yl]pyrimidin-4-yl]amino]methyl]phenyl]acetic acid]
>80		< 0.5	O=C(O)Cc1ccc(Cn2ccc3c(N4CCC[C@@H]4c4ccc(C(F)(F)F)cc4)ncnc32)cc1 [Example 195, 2-[4-[[4-[(2R)-2-[4-(trifluoromethyl)phenyl]pyrrolidin-1-yl]pyrrolo[2,3-d]pyrimidin-7-yl]methyl]phenyl]acetic acid]
>80		< 0.5	NC(=O)Cc1ccc(Cn2ccc3c(N4CCC[C@@H]4c4ccc(C(F)(F)F)cc4)ncnc32)cc1 [Example 196, 2-[4-[[4-[(2R)-2-[4-(trifluoromethyl)phenyl]pyrrolidin-1-yl]pyrrolo[2,3-d]pyrimidin-7-yl]methyl]phenyl]acetamide]
>80	>80	< 0.5	CS(=O)(=O)N1CCC(CNc2ncnc(N3CCC[C@@H]3c3ccc(C(F)(F)F)cc3)c2F)CC1 [Example 197, 5-fluoro-N-[(1-methylsulfonyl-4-piperidyl)methyl]-6-[(2R)-2-[4-(trifluoromethyl)phenyl]pyrrolidin-1-yl]pyrimidin-4-amine]
>20	>80	< 0.5	CC1(CNc2ncnc(N3CCC[C@@H]3c3ccc(C(F)(F)F)cc3)c2F)COC1 [Example 198, 5-fluoro-N-[(3-methyloxetan-3-yl)methyl]-6-[2-[4-(trifluoromethyl)phenyl]pyrrolidin-1-yl]pyrimidin-4-amine]
>20	>80	< 1	CC1(CNc2ncnc(N3CCC[C@@H]3c3ccc(C(F)(F)F)cc3)c2F)CCCO1 (stereo partly drawn) [Example 199, 5-fluoro-N-[(2-methyltetrahydrofuran-2-yl)methyl]-6-[(2R)-2-[4-(trifluoromethyl)phenyl]pyrrolidin-1-yl]pyrimidin-4-amine]
>20	>80	< 1	OC1CCCCC1CNc1ncnc(N2CCC[C@@H]2c2ccc(C(F)(F)F)cc2)c1F (stereo partly drawn) [Example 200, 2-[[[5-fluoro-6-[(2R)-2-[4-(trifluoromethyl)phenyl]pyrrolidin-1-yl]pyrimidin-4-yl]amino]methyl]cyclohexanol]
>0	>80	< 0.5	CC1(CNc2ncnc(N3CCC[C@@H]3c3ccc(C(F)(F)F)cc3)c2F)CCCS1 (stereo partly drawn) [Example 201, 5-fluoro-N-[(2-methyltetrahydrothiophen-2-yl)methyl]-6-[(2R)-2-[4-(trifluoromethyl)phenyl]pyrrolidin-1-yl]pyrimidin-4-amine]
>0	>50	< 10	O=S1(=O)CCOC(CNc2ncnc(N3CCC[C@@H]3c3ccc(C(F)(F)F)cc3)c2F)C1 (stereo partly drawn) [Example 202, N-[(4,4-dioxo-1,4-oxathian-2-yl)methyl]-5-fluoro-6-[(2R)-2-[4-(trifluoromethyl)phenyl]pyrrolidin-1-yl]pyrimidin-4-amine]
>0	>50	< 2	Fc1c(NCc2cccs2)ncnc1N1CCC[C@@H]1c1ccc(C(F)(F)F)cc1 [Example 203, 5-fluoro-N-(2-thienylmethyl)-6-[(2R)-2-[4-(trifluoromethyl)phenyl]pyrrolidin-1-yl]pyrimidin-4-amine]
>50	>80	< 0.5	O=C(O)CC1CCC(CNc2ncnc(N3CCOC[C@@H]3c3ccc(C(F)(F)F)cc3)c2F)CC1 (stereo partly drawn) [Example 205, 2-[4-[[[5-fluoro-6-[(3S)-3-[4-(trifluoromethyl)phenyl]morpholin-4-yl]pyrimidin-4-yl]amino]methyl]cyclohexyl]acetic acid]
>20	>80	< 1	NC(=O)CC1CCC(CNc2ncnc(N3CCOC[C@@H]3c3ccc(C(F)(F)F)cc3)c2F)CC1 (stereo partly drawn) [Example 206, 2-[4-[[[5-fluoro-6-[(3S)-3-[4-(trifluoromethyl)phenyl]morpholin-4-yl]pyrimidin-4-yl]amino]methyl]cyclohexyl] acetamide]
>20	>80	< 0.5	O=C(O)Cc1ccc(CNc2ncnc(N3CCC[C@@H]3c3ccc(C(F)(F)F)cc3)c2F)s1 [Example 207, 2-[5-[[[5-fluoro-6-[(2R)-2-[4-(trifluoromethyl)phenyl]pyrrolidin-1-yl]pyrimidin-4-yl]amino]methyl]-2-thienyl]acetic acid]
>50	>80	< 0.5	Fc1c(NCC2CCOCC2)ncnc1N1CCC[C@@H]1c1ccc(C(F)(F)F)cc1 [Example 208, 5-fluoro-N-(tetrahydropyran-4-ylmethyl)-6-[(2R)-2-[4-(trifluoromethyl)phenyl]pyrrolidin-1-yl]pyrimidin-4-amine]
>20	>50	< 1	Cc1ccc(CNc2ncnc(N3CCCC3(C)c3ccc(C(F)(F)F)cc3)c2F)cn1 (stereo not drawn) [Example 209, 5-fluoro-N-[(6-methyl-3-pyridyl)methyl]-6-[2-methyl-2-[4-(trifluoromethyl)phenyl]pyrrolidin-1-yl]pyrimidin-4-amine]
>50	>80	< 1	Cc1ccc(CNc2ncnc(N3CCC[C@@H]3c3ccc(C(F)(F)F)cc3F)c2F)cn1 [Example 210, 5-fluoro-6-[(2R)-2-[2-fluoro-4-(trifluoromethyl)phenyl]pyrrolidin-1-yl]-N-[(6-methyl-3-pyridyl)methyl]pyrimidin-4-amine]
>0	>50	< 1	Cc1ccc(CNc2ncnc(N3CC(C)CC3c3ccc(C(F)(F)F)cc3)c2F)cn1 (stereo not drawn) [Example 211, 5-fluoro-N-[(6-methyl-3-pyridyl)methyl]-6-[4-methyl-2-[4-(trifluoromethyl)phenyl]pyrrolidin-1-yl]pyrimidin-4-amine]
>20	>80	< 0.5	OC1(CNc2ncnc(N3CCC[C@@H]3c3ccc(C(F)(F)F)cc3)c2F)CCOC1 (stereo partly drawn) [Example 220, 3-[[[5-fluoro-6-[(2R)-2-[4-(trifluoromethyl)phenyl]pyrrolidin-1-yl]pyrimidin-4-yl]amino]methyl]tetrahydrofuran-3-ol]
>50	>80	< 0.5	OCCC1(CNc2ncnc(N3CCC[C@@H]3c3ccc(C(F)(F)F)cc3)c2F)CCOCC1 [Example 221, 2-[4-[[[5-fluoro-6-[(2R)-2-[4-(trifluoromethyl)phenyl]pyrrolidin-1-yl]pyrimidin-4-yl]amino]methyl]tetrahydropyran-4-yl]ethanol]
>20	>80	< 2	O=S1(=O)CCC(CNc2ncnc(N3CCC[C@@H]3c3ccc(C(F)(F)F)cc3)c2F)CC1 [Example 222, N-[(1,1-dioxothian-4-yl)methyl]-5-fluoro-6-[(2R)-2-[4-(trifluoromethyl)phenyl]pyrrolidin-1-yl]pyrimidin-4-amine]
>50	>80	< 0.5	O=S1(=O)CCC(O)(CNc2ncnc(N3CCC[C@@H]3c3ccc(C(F)(F)F)cc3)c2F)CC1 [Example 223, 4-[[[5-fluoro-6-[(2R)-2-[4-(trifluoromethyl)phenyl]pyrrolidin-1-yl]pyrimidin-4-yl]amino]methyl]-1,1-dioxo-thian-4-ol]

— patent US10689383B2, “Optionally fused heterocyclyl-substituted derivatives of pyrimidine useful for the treatment of inflammatory, metabolic, oncologic and autoimmune diseases” (NUEVOLUTION A/S, priority 2014, dated 2020)
